A short description of data set [1]: Plasma stability, plasma from CES1KO mice. To be noted: CES1KO = Mouse Plasma from CES1KO mice.
A short description of data set [2]: Plasma stability, pig plasma. The format is in vitro ADME. To be noted: PP = Pig Plasma.
The nature of data set [3]: Metabolic stability in swine liver tissue homogenate. Conditions: prodrug 20 μM, 37° C. It counts as in vitro ADME. A digest of the protocol: (§1)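 Freshly collected swine jejunum or liver was sonicated in 9 volumes of 0.1 M potassium phosphate buffer on ice. Prodrugs at 20 μM (0.2% DMSO, triplicate) were incubated at 37° C for 0, 30 and 60 min. Samples were quenched in methanol with losartan internal standard, and prodrug disappearance was followed by LC-MS/MS using analyte/IS peak area ratios.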

The nature of data set [4]: Plasma stability, rat plasma. The format is in vitro ADME. Conditions: RP = Rat Plasma.
Data set [5] can be described thus: Metabolic stability in swine jejunum (gut) tissue homogenate. The format is in vitro ADME. Conditions: prodrug 20 μM, 37° C. The procedure, abridged:
as §1

The next data set deals with P493B lymphoma cells. In words: Human tumor cell-to-plasma partitioning assay (DON release in P493B cells). Conditions: 10 million cells/mL, prodrug 20 μM, 37° C., 1 h.
The nature of data set [6]: Plasma stability, human plasma. The format is in vitro ADME. Conditions: HP = Human Plasma.
The nature of data set [7]: Plasma stability, mouse plasma. Conditions: MP = Mouse Plasma.
The conditions of data set [8]: not told.
The conditions of data set [9]: mouse, 1 h.

Converted amounts (≈) assume the structure as drawn. Read-outs that look alike come from different tables or passages of the source.

Description for P493B lymphoma cells: The human plasma-to-tumor cell partitioning assays were conducted using P493B lymphoma following our previously reported method. […] In brief, cells were cultured in 150 cm^2 T-flasks (Falcon™, USA, Cat. #08-772-48) with RPMI Medium 1640 medium 1× containing L-glutamine (RPMI-1640, Corning®, USA, Cat. #10-040-CV), supplemented with 10% v/v Fetal Bovine Serum (FBS, Gibco™, USA, Cat. #26140079), and 1% v/v antimycotic/antibiotic (Gibco™, USA, Cat. #15240062). Cells were grown at 37° C., in a humidified atmosphere with 5% CO2. Cells were harvested after achieving>80% confluency and centrifuged at 200×g for 5 min at 25° C. The obtained cell pellet was re-suspended in 20 mL of Dulbecco's phosphate-buffered saline (DPBS, Gibco™, USA, Cat. #14-190-144) maintained at 37° C. and cell count was determined using an automated cell counter (Bio-Rad, USA). […] Both plasma and cell pellet fractions were analyzed for intact prodrug and DON levels.
Frozen plasma and cell pellets were thawed on wet ice. […] After centrifugation, 100 μL of the supernatant was diluted with 400 μL of water, and analyzed in LC-MS/MS. […]
The underivatized supernatants/derivatized samples were analyzed on a LC-MS/MS system consisting of Dionex ultra high-performance LC system hyphenated with Q Exactive Focus Orbitrap mass spectrometer (Thermo Fisher Scientific Inc., Waltham, MA). […]

Turning to `CC(=O)N[C@@H](CCC(=O)C=[N+]=[N-])C(=O)OC(C)C` [Compound 5a, Isopropyl (S)-2-acetamido-6-diazo-5-oxohexanoate], the “Plasma Stability (% remaining at 60 min)” value was 89 ± 2 (ces1KO) % in data set [1], 105 ± 1 (PP) % in data set [2] and 0 ± 0 (RP) % in [4]. Besides, the “Liver stability (% remaining at 60 min)” value in [3] stood at 23 ± 0%. Further, the “Gut Stability (% remaining at 60 min)” value in data set [5] is listed as 76 ± 0%.
`CN(C)CC(=O)N[C@@H](CCC(=O)C=[N+]=[N-])C(=O)OC(C)(C)C` [Compound 5h, tert-Butyl (S)-6-diazo-2-(2-(dimethylamino)acetamido)-5-oxohexanoate]: the “Liver stability (% remaining at 60 min)” value in [3] was 93 ± 1%. The same compound had an Efflux in the data set “Efflux” of 2. For the same compound, in data set [5], the “Gut Stability (% remaining at 60 min)” value turned out to be 100 ± 1%. The “P493B cells (DON release; nmol/g)” value in the data set with P493B lymphoma cells is given as “Undetectable”.
On to `CN(C)CC(=O)N[C@@H](Cc1c[nH]c2ccccc12)C(=O)N[C@@H](CCC(=O)C=[N+]=[N-])C(=O)OC(C)(C)C` [Compound 11b, tert-Butyl (S)-6-diazo-2-((S)-2-(2-(dimethylamino)acetamido)-3-(1H-indol-3-yl)propanamido)-5-oxohexanoate], for which the “Plasma Stability (% remaining at 60 min)” value is on record as 101 ± 0 (HP) % in [6], 68 ± 2 (MP) % in data set [7] and 3 ± 0 (RP) % in [4]. The “Liver stability (% remaining at 60 min)” value in data set [3] amounted to 80 ± 3%. Moreover, in “Efflux”, the Efflux is 33. The solubility in the data set “Solubility” turned out to be 170 µg/mL (≈ 0.341 mM). Besides, the “Gut Stability (% remaining at 60 min)” value in [5] is reported as 79 ± 4%.
Consider `CC(C)(C)OC(=O)[C@H](CCC(=O)C=[N+]=[N-])NC(=O)[C@H](Cc1c[nH]c2ccccc12)NC(=O)C12CCN(CC1)CC2` [Compound 11d, tert-Butyl (S)-2-((S)-3-(1H-indol-3-yl)-2-(quinuclidine-4-carboxamido)propanamido)-6-diazo-5-oxohexanoate], for which the solubility in “physchem” amounted to 4300 µg/mL (≈ 7.81 mM). The Efflux in data set [8] is 2.
In “physchem”, `Cn1cc(C[C@H](NC(=O)C23CCN(CC2)CC3)C(=O)N[C@@H](CCC(=O)C=[N+]=[N-])C(=O)OC(C)(C)C)c2ccccc21` [Compound 12b, tert-Butyl (S)-6-diazo-2-((S)-3-(1-methyl-1H-indol-3-yl)-2-(quinuclidine-4-carboxamido)propanamido)-5-oxohexanoate] returned a solubility of 8800 µg/mL (≈ 15.6 mM). For the same compound, the “Plasma Stability (% remaining at 60 min)” value in [9] is 92 ± 1 (MP) %. This compound yielded an Efflux in data set [8] of 3.48.
`CN(C)CC(=O)N[C@@H](Cc1cccnc1)C(=O)N[C@@H](CCC(=O)C=[N+]=[N-])C(=O)OC(C)(C)C` [Compound 17b, tert-Butyl (S)-6-diazo-2-((S)-2-(2-(dimethylamino)acetamido)-3-(pyridin-3-yl)propanamido)-5-oxohexanoate]: the “Plasma Stability (% remaining at 60 min)” value is recorded as 96 ± 3 (HP) % in [6], 82 ± 6 (MP) % in data set [7] and 33 ± 2 (RP) % in data set [4]. Moreover, the “Liver stability (% remaining at 60 min)” value in data set [3] worked out at 91 ± 1%. For the same compound, the Efflux in “Efflux” came out at 57. For the same compound, the solubility in the data set “Solubility” was around 10000 µg/mL (≈ 21.7 mM). Besides, in [5], the “Gut Stability (% remaining at 60 min)” value was determined as 98 ± 1%.

Values taken from US20240246902A1, “PRODRUGS OF 6-DIAZO-5-OXO-L-NORLEUCINE” (THE JOHNS HOPKINS UNIVERSITY, priority 2021, published 2024).
